Assay results taken from PMC6482174, “Fragment-based screening identifies inhibitors of ATPase activity and of hexamer formation of Cagα from the Helicobacter pylori type IV secretion system” (Scientific Reports, 2019).

Assays:
[1] = tested on: IL-8 production by AGS cells upon co-cultivation with H. pylori; experiment: IL-8 induction in AGS cells co-cultivated with H. pylori (ELISA); format: cell-based, Helicobacter pylori; details: 200 μM
From the text: (§1) Finally, we assessed whether molecule 1G2 or its derivates impact the functionality of the T4SS in vivo. To this effect, we tested their impact on the interaction of H. pylori strain 26695 with gastric adenocarcinoma (AGS) cells. […] We then tested the effects of these molecules in two commonly used assays for downstream effects of T4SS function: IL-8 production and CagA phosphorylation. […] In contrast, derivates 1G2#1 to #6 have no effect on IL-8 production. Similarly, none of the molecules reduces the tyrosine phosphorylation of the T4SS-translocated virulence factor CagA, which is generally used as an alternative assay to measure T4SS function (Supplementary Fig. 8). […] This observation may be due to partial inhibition of T4SS function by 1G2 that is more readily quantifiable in the IL-8 production assay as compared to the CagA phosphorylation assay.
Figure 6 Molecule 1G2 decreases IL-8 induction in co-cultivated AGS cells. H. pylori 26695 without and after pre-incubation with 1G2 and its derivatives for […]. AGS cells were then co-cultured with H. pylori overnight and IL-8 induction was measured by ELISA. The induction of IL-8 by the wild type was calculated as 100% (WT), induction of IL-8 by the ΔcagV strain was used as negative control. The data represent the results from three experiments. […]

Cagα ATPase activity = Cagα ATPase activity (Helicobacter pylori, UniProt G5EB02); experiment: Malachite green ATPase activity assay; format: biochemical; details: for Mechanism of inhibition: inhibitor 0 to 500 μM, ATP varied, only Vmax affected, Km constant
Protocol: We used a Malachite green assay to measure the release of inorganic phosphate from ATP to assess whether the 16 binding fragments impact the enzymatic activity of Cagα. […] Therefore, the mechanism of inhibition by molecules 1G2 and 1G2#4 is non-competitive.
The ATPase activity was quantified using a malachite green binding assay. The 100 μL reaction mixtures contained 25 mM HEPES (pH 7.5), 100 mM NaCl, 60 nM of enzyme and 200 µM of MgCl2 with different concentrations of ATP (0 µM–320 µM) to determine kinetic parameters. The reaction mixtures were incubated for 30 min at 30 °C and then 40 μL of malachite green assay mixture was added. The formation of the blue phosphomolybdate-malachite green complex was in linear relation to the amount of released inorganic phosphate and measured at 610 nm. To study the mechanism of inhibition, the concentrations of inhibitors were varied between 0 and 500 μM with different concentrations of ATP (0–40 μM). Initial velocity data were fit using nonlinear regression analysis to each of the equations describing partial and full models of competitive, uncompetitive, non-competitive, and mixed inhibition using the Enzyme Kinetics Module of SigmaPlot (SigmaPlot version 11.0 software). On the basis of the analysis of fits through “goodness-of-fit” statistics, the full non-competitive inhibition model was determined with the equation ν = Vmax/[(1 + [I]/Ki) × (1 + Km/[S])], where [S] = [ATP], [I] = [1G2].
IC50 values were determined by incubating different concentrations of molecules (10–1,000 µM; from stocks of 200 mM) with enzyme in 25 mM HEPES (pH 7.5) and 100 mM NaCl. Mixtures were incubated with inhibitors for 15 min, followed by addition of ATP and incubation for 30 min at 37 °C. The reactions were stopped by addition of 40 µl malachite green solution and the inorganic phosphate released was determined at 610 nm. Data were plotted as 1/rate versus inhibitor concentration for each substrate concentration and a linear fit was calculated by non-linear regression using SigmaPlot (version 11.0).

H. pylori 26695 = experiment: H. pylori growth on solid agar media (Whatman paper disks); format: cell-based, Helicobacter pylori; details: 72 h
From the text: as §1
AGS cell viability was monitored using Cell Proliferation Reagent WST-1 (Sigma). To evaluate the sensitivity of H. pylori to 1G2 and its derivates, freshly harvested bacteria were spread on a 150-mm agar plate. Increasing concentrations of compounds (50–500 μM) were spotted onto Whatman paper disks and growth was observed after 72 h incubation at 37 °C under microaerophilic conditions and compared to antibiotics (50–250 μM).
Supplementary Figure 6. Effects of molecule 1G2 and its derivates on H. pylori growth. […]

[2] = tested on: tyrosine phosphorylation of the T4SS-translocated virulence factor CagA; experiment: CagA transfer into AGS cells / CagA tyrosine phosphorylation (western blot); format: cell-based, Helicobacter pylori; details: H. pylori pre-incubated with molecule, AGS infection
From the text: as §1
Preceding the infection, an overnight culture of H. pylori was pre-incubated with 1G2 and its derivates for 30 min. AGS cells at 6 × 10^5 cells/well density in 6-well plates were infected with the pre-treated cultures of H. pylori for 3–6 h at a multiplicity of infection of 100:1. […]
Western blot analyses were reproduced four times and intensities of the CagAPY signals were quantified (Image Lab TM Software) and normalized using anti -b-actin signals. […]

Cagα ATPase activity, sequence (G5EB02 entry or part of it): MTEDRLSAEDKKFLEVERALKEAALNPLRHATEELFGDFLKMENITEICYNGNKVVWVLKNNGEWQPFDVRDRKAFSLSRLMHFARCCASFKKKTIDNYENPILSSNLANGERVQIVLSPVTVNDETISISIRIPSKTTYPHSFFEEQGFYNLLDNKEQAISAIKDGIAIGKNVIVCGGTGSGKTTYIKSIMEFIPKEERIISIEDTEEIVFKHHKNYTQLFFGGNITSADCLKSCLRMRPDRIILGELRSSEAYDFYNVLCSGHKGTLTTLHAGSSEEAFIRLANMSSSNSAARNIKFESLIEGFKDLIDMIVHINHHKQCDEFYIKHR

O=C(O)c1ccc(Oc2ccccn2)cc1 [1G2]
IL-8 production, of the control ([1]; wild type without molecule = 100%): about 50% | IC50 (Cagα ATPase activity): 196 µM | Mechanism of inhibition (Cagα ATPase activity): non-competitive | Effect on growth of H. pylori on solid agar media (H. pylori 26695; concentrations up to 500 μM): no negative effect | Effect on tyrosine phosphorylation of CagA [2]: did not observe an effect

O=C(N[C@H](CO)[C@H](O)c1ccc([N+](=O)[O-])cc1)C(Cl)Cl [chloramphenicol, reference compound]
Effect on growth of H. pylori (control antibiotic) (H. pylori 26695; several concentrations on Whatman paper disks): inhibition of growth

Cc1ccc(Oc2ccc(C(=O)O)cc2)nc1 [1G2#4]
Effect on IL-8 production (in words) [1]: no effect | IC50 (Cagα ATPase activity): 81.9 µM | Mechanism of inhibition (Cagα ATPase activity): non-competitive | Effect on tyrosine phosphorylation of CagA [2]: no effect
